Assays:
[1] = tested on: E. coli clinical strain UTI89; assay: Biofilm formation inhibition, crystal violet, E. coli clinical strain UTI89; format: cell-based; conditions: Escherichia coli, read-out: inhibited biofilm formation as compared to the controls
Experimental: (§1) Biofilm inhibition experiments were conducted using an assay adapted from the reported protocol described in Pratt and Kolter, 1998, Molecular Microbiology, 30: 285-293; Li et al., 2001, J. Bacteriol., 183: 897-908. E. coli clinical strain UTI89 was grown in LB in 96 well plates at room temperature for one or two days without shaking. E. coli laboratory strain JM109 was grown in LB plus 0.2% glucose in 96 well plates at room temperature for one day without shaking. To quantify the biofilm mass, the suspension culture was poured out and the biofilm was washed three times with water. The biofilm was stained with 0.1% crystal violet for 20 minutes. The plates were then washed three times with water. OD reading at 540 nm was measured to quantify the biofilm mass at the bottom of the wells. Then 95% ethanol was added to dissolve the dye at the bottom and on the wall and the OD reading at 540 nm was measured to quantify the total biofilm mass. To study the overall effect of the compounds (3.6 mg/mL in 100% ethanol as stock solution), it was added with the inoculation and a time course of biofilm mass was measured. Appropriate amounts of 100% ethanol were added to each sample to eliminate the effect of solvent. Each condition had 3-4 replicates on each plate and was performed over multiple days.

[2] = tested on: E. coli laboratory strain JM109; assay: Biofilm formation inhibition, crystal violet, E. coli laboratory strain JM109; format: cell-based; conditions: Escherichia coli, read-out: inhibited biofilm formation as compared to the controls
Experimental: as §1

[3] = tested on: Clinical isolates of P. aeruginosa from cystic fibrosis patients; assay: Detachment of mature biofilms on peg lids, crystal violet; format: cell-based; conditions: 5 ug/ml; about 40 hours; eighteen clinical isolates
Experimental: Clinical isolates of P. aeruginosa from cystic fibrosis patients were passed twice on tryptic soy agar with 5% sheep blood after retrieval from −80° C. and then grown overnight in CAMHB. After dilution of a culture to 0.5 McFarland in broth medium, 100 μl was transferred in triplicate to wells of a flat-bottom 96-well microtiter plate. Bacterial biofilms were formed by immersing the pegs of a modified polystyrene microtiter lid into this biofilm growth plate, followed by incubation at 37° C. for 20 hours with no movement.
Peg lids were rinsed three times in sterile water, placed onto flat-bottom microtiter plates containing biofilm inhibitors at 5 ug/ml in 100 μl of CAMHB per well and incubated for approximately 40 hours at 37° C.
Pegs were rinsed, placed in a 0.1% (wt/vol) crystal violet solution for 15 min, rinsed again, and dried for several hours. To solubilize adsorbed crystal violet, pegs were incubated in 95% ethanol (150 μl per well of a flat-bottom microtiter plate) for 15 min. The absorbance was read at 590 nm on a plate reader. The wells containing asiatic acid were compared to negative controls. Negative controls were prepared as stated above but without asiatic acid.

[4] = tested on: E. coli clinical strain UTI89; assay: Invasion of E. coli UTI89 into bladder epithelial cells; format: cell-based; conditions: 40 μg/ml; 60 minutes; separate experiments (n=4-7)
Experimental: The effect of test compounds on bacterial invasion of E. coli clinical strain UTI89 was studied as described in Elsinghorst, et al. 1994, Methods Enzymol, 236:405-420; and Martinez et al., 2000, EMBO J., 19:2803-2812. Epithelial bladder cells were grown in plates. Asiatic acid, corosolic acid, or ursolic acid were added at concentrations of 10 μg/ml, 20 μg/ml, or 40 μg/ml to bacteria and epithelial cells for approximately 5, 15, 30, or 60 minutes with approximately 10^7 CFU of E. coli. Binding was assessed at time zero and invasion was assessed at approximately 5, 15, 30, or 60 minutes from completing the mixture of compound, bacteria, and epithelial cells. As a control ethanol was added to cells to a final concentration of 0.1%. The effect of bacterial viability and bacterial adherence during the infection period was evaluated according to the methods described in Martinez et al., 2000, EMBO J., 19:2803-2812.

[5] = Bladder concentrations in rats after oral dose; conditions: rat, in vivo, po, 50 mg/kg
Experimental: Pharmacokinetic studies of asiatic acid and madecassic acid in rats were performed separately. Asiatic acid and madecassic acid were evaluated at 50 mg/kg (oral). Two animals were assigned to each group. Prior to dosing, a baseline blood sample was taken from each animal. At time zero, asiatic acid and madecassic acid, a single bolus dose in 50% Labrasol (Gattefosse) was given to each animal. Bladders were analyzed at 24 hours. Concentrations of both asiatic acid and madecassic acid in the bladder were approximately 30 μg/g at 24 hours.

bacterial invasion = assay: Bacterial invasion statement of Example 9; conditions: within 15 minutes of administration

C[C@H]1[C@H](C)CC[C@]2(C(=O)O)CC[C@]3(C)C(=CC[C@@H]4[C@@]5(C)C[C@@H](O)[C@H](O)[C@@](C)(CO)[C@@H]5CC[C@]43C)[C@H]12 [Asiatic acid, asiatic acid]
inhibition at 4 µg/mL ([1]; 4 ug/ml): ~10%
inhibition at 8 µg/mL ([1]; 8 ug/ml): ~15%
inhibition at 16 µg/mL ([1]; 16 ug/ml): ~50%
inhibition at 32 µg/mL ([1]; 32 ug/ml): ~90%
inhibition at 5 µg/mL ([2]; JM 109, 5 ug/ml): ~70%
inhibition at 10 µg/mL ([2]; JM 109, 10 ug/ml): ~80%
average detachment of mature biofilms compared to negative controls [3]: approximately 50%
reduced invasion of E. coli into bladder epithelial cells as compared to the controls [4]: 87%
concentration at 24 h [5]: ~30000 ng/g
bacterial invasion (in words) (bacterial invasion): significantly reduced bacterial invasion

Source: patent US20060264411A1, “Control of biofilm formation” (priority 2005, published 2006)
